Measurements from patent publication US20250339514A1, “SINGLE-AND MULTI-EPITOPE PEPTIDE AND MRNA VACCINES TO GENERATE TOLEROGENIC EFFECTS FOR ALLERGIC AND AUTOIMMUNE DISEASE BY TARGETING LIVER SINUSOIDAL ENDOTHELIAL CELLS” (The Regents of the University of California, priority 2022, published 2025).

Key:
H2-A^k = H2-A^k (Mus musculus, UniProt P01910+P06343); details: MHC II H2-A^k; cited from earlier work
[1] = Cargo loading and ApoBP ligand content by microBCA / BCA assay; type: physicochemical
Procedure: The relative abundance of mannan incorporation was assessed by calculating the difference between the total amount offered for conjugation versus the amount recovered in the supernatant. […] The abundance of peptide conjugation was assessed by a microBCA assay and a nanodrop method.
The purified NPs were fully characterized using dynamic light scattering to determine particle size and surface charge, and scanning electron microscopy was performed to visualize particle morphology. The microBCA assay was used to detect OVA loading capacity and the conjugation efficiency of the peptide ligand, whereas the phenol-sulfuric acid method was used to determine mannan concentration. The endotoxin level was verified by a chromogenic LAL assay.
Particles were separated and washed by centrifugation (15,000 g, 10 min). Hydrodynamic size and surface potential were measured using dynamic light scattering (DLS), with visualization of the particle size and morphology by scanning electron microscopy (SEM). […] In addition to loading of T-cell epitopes, we also selected an IgE binding peptide for encapsulation, in addition to the synthesis of nanoparticles that incorporate CPPE as well as a purified Ara h2 protein (Indoor Biotechnologies). The CPPE was prepared as described in the Online Repository section. Allergen loading capacity, including for CPPE, purified Ara h2 and its epitopes, as well as the conjugation efficacy of the ApoB ligand was determined by bicinchoninic acid assay (BCA assay).

factor VII = details: cited from earlier work
[2] = ionizable lipid; cited from earlier work
human T-cell lines = details: T-cell lines isolated from 10 different donors; cited from earlier work
lupus patients = details: Phase 1 and Phase 2 clinical trials; cited from earlier work
MRL/lpr mice = details: repeated administration; cited from earlier work
lupus-prone mice = details: subcutaneous every 2 weeks; cited from earlier work
C57BL/6J mice = details: inhalation of low peptide concentrations, naïve C57BL/6J mice; cited from earlier work
I-Ek = details: cited from earlier work; for Score (antigenic score predicted): MHC II H2-E^k
T cell responses = test system: T cell responses; set-up: Immunopositivity of predicted CTL epitope / Immunopositivity of MHC II peptide: scale not given here; details: cited from earlier work; for Immunopositivity of MHC II peptide: MHC II peptides, Table 60
[3] = peptide in PLGA nanoparticles, Table 66

Sequence of H2-A^k (P01910 24-256): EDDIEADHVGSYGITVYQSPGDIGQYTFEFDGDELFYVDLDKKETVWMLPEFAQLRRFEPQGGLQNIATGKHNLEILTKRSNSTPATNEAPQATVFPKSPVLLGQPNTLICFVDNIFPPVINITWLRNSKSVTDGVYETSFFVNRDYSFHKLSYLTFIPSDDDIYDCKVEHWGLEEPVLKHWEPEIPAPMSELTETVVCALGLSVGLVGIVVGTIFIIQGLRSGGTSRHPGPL
Sequence of H2-A^k (P06343 28-263): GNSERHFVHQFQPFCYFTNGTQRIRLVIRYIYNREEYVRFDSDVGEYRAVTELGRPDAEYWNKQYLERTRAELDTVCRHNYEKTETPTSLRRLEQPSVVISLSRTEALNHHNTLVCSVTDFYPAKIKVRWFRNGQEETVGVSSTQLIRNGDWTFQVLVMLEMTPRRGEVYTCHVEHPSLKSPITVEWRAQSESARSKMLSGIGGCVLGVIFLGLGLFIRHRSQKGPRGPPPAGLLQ

SEQ ID NO: 1182 (CKDDINSYECWCPFG; listed as Arachis hypogaea)
Score (antigenic score predicted) (H2-A^k): 18

4 (SYGRDPYSPSQDPYS; listed as Arachis hypogaea) [compound 4]
Loading Capacity ([1]; epitope in PLGA NPs, Table 68): 8.68 ± 2.04 µg/mg

#4 (SYGRDPYSPSQDPYS; listed as Arachis hypogaea)
Loading Capacity [1, 3]: 8.68 + 2.04

CCCCC/C=C\C/C=C\CCCCCCCCC(CCCCCCCC/C=C\C/C=C\CCCCC)OC(=O)CCCN(C)C [DLin-MC3-DMA, (6Z,9Z,28Z,31Z)-heptatriaconta-6,9,28,31-tetraen-19-yl-4-(dimethylamino) butanoate]
potency (factor VII; higher potency than DLin-KC2-DMA): 10 fold
pKa [2]: 6.44

AH96-110: adalimumab HCDR3 peptide (CAKVSYLSTASSLDY; listed as Homo sapiens)
recognition by T-cell lines (human T-cell lines): recognized by the majority of T-cell lines

1 (LALFLLAAHASARQQ; listed as Arachis hypogaea) [compound 1]
Loading Capacity ([1]; epitope in PLGA NPs, Table 68): 1.62 + 2.11 μg/mg

RIHMVYSKRpSGKPRGYAFIEY [P140]
clinical efficacy (lupus patients): effective in treating lupus patients
T-cell epitope spreading to other U1-70K regions (MRL/lpr mice): transiently abolishing T-cell epitope spreading

CCCCC/C=C\C/C=C\CCCCCCCCC1(CCCCCCCC/C=C\C/C=C\CCCCC)OCC(CCN(C)C)O1 (centres unmarked) [DLin-KC2-DMA, 2,2-dilinoleyl-4-(2-dimethylaminoethyl)-[1,3]-dioxolane]
activity (factor VII; higher activity over DLin-K-DMA): 4 fold

3 (MAKLTILVALALFLL; listed as Arachis hypogaea) [compound 3]
Loading Capacity ([1]; epitope in PLGA NPs, Table 68): 1.31 + 1.72 μg/mg

SEQ ID NO: 1173 (NGRDSLVNPGPAMAS; listed as Arachis hypogaea)
Score (antigenic score predicted) (H2-A^k): 24

1,2-dioleoyl-3-dimethylaminopropane [DODAP]
pKa [2]: 6.6

#3 (MAKLTILVALALFLL; listed as Arachis hypogaea)
Loading Capacity [1, 3]: 1.31 + 1.72

CCCCC/C=C\C/C=C\CCCCCCCCC(O)(CCCCCCCC/C=C\C/C=C\CCCCC)CCCCN(C)C [YSK012-C4]
pKa [2]: 8.0

SEQ ID NO: 1183 (QYVDGDQCESNPCLN; listed as Arachis hypogaea)
Score (antigenic score predicted) (H2-A^k): 18

2 (LRNLPQQCGLRAPQR; listed as Arachis hypogaea) [compound 2]
Loading Capacity ([1]; epitope in PLGA NPs, Table 68): 3.22 ± 1.96 µg/mg

SEQ ID NO: 1172 (TSADNNNSEYSWTGA; listed as Arachis hypogaea)
Score (antigenic score predicted) (H2-A^k): 24

SEQ ID NO: 1181 (YNHDIALLELLEDEPLV; listed as Arachis hypogaea)
Score (antigenic score predicted) (H2-A^k): 24

#2 (LRNLPQQCGLRAPQR; listed as Arachis hypogaea)
Loading Capacity [1, 3]: 3.22 + 1.96

CCCCC/C=C\C/C=C\CCCCCCCCC1(CCCCCCCC/C=C\C/C=C\CCCCC)OCC(CN(C)C)O1 (centres unmarked) [DLin-K-DMA, 2,2-dilinoleyl-4-dimethylaminomethyl-[1,3]-dioxolane]
potency on the in vivo silencing of factor VII (factor VII; higher than the other tested lipids): 2.5 fold

H4 aa 71-94: nucleosomal histone H4 peptide autoepitope
efficacy of autoepitope (lupus-prone mice): most effective autoepitope

Der p1 T-cell epitope (residues 111-139): major Der p1 T-cell epitope peptide (Hoyne et al.) (FGISNYCQIYPPNVNKIREALAQTHSAIA; UniProt P08176 209-237, looked up, fragment)
tolerance induction (C57BL/6J mice): capable of inducing tolerance

QVSVEIEWELQKENS [AAV2-VP3 475-489, reference compound]
SYFPEITHI score (I-Ek; I-Ek): 22
Th2 response (T cell responses; C3H mice): strong Th2 response

#1 (LALFLLAAHASARQQ; listed as Arachis hypogaea)
Loading Capacity [1, 3]: 1.62 + 2.11

SEQ ID NO: 1175 (YKYLLGPFNGLDKGEP; listed as Arachis hypogaea)
Score (antigenic score predicted) (I-Ek): 28
Immunopositivity of MHC II peptide (T cell responses): YKYLLGPINGUDKGEP^d

AH91-110: adalimumab HCDR3 peptide
recognition by T-cell lines (human T-cell lines): recognized by the majority of T-cell lines

SEQ ID NO: 1178 (NSYVTPICIADEKEYT; listed as Arachis hypogaea)
Score (antigenic score predicted) (I-Ek): 24
Immunopositivity of MHC II peptide (T cell responses): NSYVTPICIADKEYT^c

SEQ ID NO: 1176 (IVADNLQQQNTAPQI; listed as Arachis hypogaea)
Score (antigenic score predicted) (H2-A^k): 26
